Source: US20080058284A1, “Pharmaceutical compositions of semicarbazones and/or thiosemicarbazones and/or their derivatives and products of these compositions and their uses as anticonvulsant, anti-nociceptive and anti-inflammatory agents, and in the angiogenic therapy” (UNIVERSIDALE FEDERAL DE MINAS GERAIS, priority 2002, published 2008)

Experiments:
[1] = tested on: Wistar normal rats with electroshock induced seizures; assay: Maximum electroshock screening (MES), blockade of hindlimb extension; type: in vivo, rat
Experimental: Comparison of the Anticonvulsant Effect of Free Benzaldehyde Semicarbazone (BS) and the BS/HP-β-CD and BS/β-CD Pharmaceutical Compositions in Wistar Normal Rats with Electroshock Induced Seizures (Maximum Electroshock Screening, MES)
(§1) Wistar rats from the main breeding stock of the Institute of Biological Sciences, Federal University of Minas Gerais, Brazil, maintained at the animal facilities of the Physiology Department, weighing 250-300 g, were used. They were kept at 24° C., in groups of 5 per cage receiving chow pellets and water ad libitum. The light/dark cycle was 12 h:12 h, with lights on at 7:00 am and lights off at 7:00 pm. Efforts were made in order to avoid any unnecessary distress to the animals, in accordance to the Guidelines for Animal Experimentation of Federal University of Minas Gerais, Brazil.
Electroshock seizures were induced by electric stimulus, produced by an ELEKTROSCHOCKGERAT apparatus (Karl Kolbe, Scientific Technical Supplies, Frankfurt, Germany) using a current of 70 mA, 60 Hz, during 1 second through a pair of ear clip electrodes.
The behavioral evaluation was carried out by analyzing the tonic component in a four points scale as follows: 0=no seizure; 1=forelimb extension without hind limb extension; 2=complete forelimb extension and partial hind limb extension; 3=complete hind limb extension, which stays parallel to the tail. To evaluate the effect of decreasing on electroshock induced seizures severity, it was taken as criteria the blockade of complete fore- and hind limb extension (score≦1).

[2] = tested on: Wistar Audiogenic Rats (WAR) with audiogenic seizures; assay: Audiogenic seizures (AS) in Wistar Audiogenic Rats, blockade of tonic component; type: in vivo, rat
Source text: Comparison of the Anticonvulsant Effect of Free Benzaldehyde Semicarbazone (BS) and the HP-β-CD/BS Pharmaceutical Composition in Wistar Audiogenic Rats (WAR) with Audiogenic Seizures (AS). Typically WARs Present Running Fits, Jumping, Atonic Falling Followed by Tonic-Clonic Seizures and Clonic Spasms when Submitted to High Intensity Sound Stimulus (120 dB SPL)
as §1, with “Female Wistar” for “Wistar”, “Audiogenic Rats (WARs)” for “rats”, “our own inbred colony,” for “the main breeding stock of the Institute of Biological Sciences, Federal University of Minas Gerais, Brazil,”, “Department of Federal University of Minas Gerais, Brazil,” for “Department,”
Audiogenic seizures (AS) were induced by a sound stimulus (120 dB) delivered into an acoustic chamber through a loud speaker, until tonic seizures appeared, or during a maximum of 1 minute. Behavior was evaluated by a severity index (SI) ranging from SI=0.0 to SI=1.0 (maximum).
Typically WARs present running fits, jumping and atonic falling followed by tonic-clonic seizures and clonic spasms (SI≧0.85). Animals were stimulated three times, once every three days before the beginning of experiments, in order to screen them for seizure severity (control recording). Seven days after the third stimulation they were used in the experiments. To evaluate the effect of decreasing on AS severity, it was taken as criteria the blockade of the tonic component of seizure, which means to obtain SI<0.61.

motor activity of mice = assay: Motor activity in rota-rod apparatus; type: in vivo; conditions: 10, 25 or 50 mg/kg i.p.; 30 min after injection; 14 rpm, cut-off 1 min
Experimental: The effect of BS on the motor activity of mice was evaluated in order to investigate if inhibition of the nociceptive behavior in animals treated with BS would not be the result of a central depressor effect. The motor activity was evaluated in a rota-rod apparatus. During the experiment, the mice were placed on the rota-rod (14 rpm) and the time they spent in the apparatus was determined. The cut-off time was 1 min. After the basal lecture, the animals were treated with BS (10, 25 or 50 mg/kg, intraperitoneal; i.p.). The vehicle used was 25% dimethylsulphoxide (DMSO)+10% tween 80 in saline. Thirty minutes after the injection, the time spent in the rota-rod was determined again.

[3] = tested on: nociceptive response induced by formaldehyde in mice; assay: Licking behavior induced by formaldehyde; type: in vivo
Experimental: In the first model, licking behaviour induced by formaldehyde (0.92%, 20 μL), the inflammatory stimulus is injected into the dorsum of the right hindpaw of mice. Immediately after the injection, the animals present a nociceptive behaviour characterized by licking and biting the injected paw. The licking time is determined between 0 and 5 min and 15 and 30 min after formaldehyde injection. The first phase results from direct activations of primary afferent fibers and is inhibited mainly by centrally acting drugs such as the opioid analgesics. The second phase is associated with the development of an inflammatory response and facilitation of synaptic transmission in the spinal cord.
In the model of licking behavior induced by formaldehyde, the inflammatory stimulus (0.92%, 20 μL) is injected into the dorsum of the right hindpaw of mice. Immediately after the injection, the animals present a nociceptive behaviour characterized by licking and biting the injected paw. The licking time is determined between 0 and 5 min (first phase) and 15 and 30 min (second phase) after formaldehyde injection. The first phase of the nociceptive response induced by formaldehyde in mice was inhibited by the highest dose of BS (50 mg/kg, i.p.).

[4] = tested on: thermal allodynia induced by carrageenan in Wistar male rats; assay: Thermal allodynia induced by carrageenan; type: in vivo, rat; conditions: only at 50 mg/kg i.p., -1 h (10, 25, 50 mg/kg tested)
Experimental: (§2) In the model of thermal allodynia, the right hindpaw withdrawal latency to a thermal stimulus (Hargreaves apparatus—Ugo Basile, Italy) is determined in rats before the administration of any drug. The intensity of the thermal stimulus is adjusted to induce a basal latency about 12 s. After the basal lecture, carrageenan (1%, 50 μL) is injected into the right hindpaw. This inflammatory stimulus reduces the latency for paw withdrawal induced by the thermal stimulus, which is characterized as thermal allodynia.
as §2, with “μl)” for “μL)”

[5] = tested on: carrageenan-induced edema in rats; assay: Carrageenan-induced edema; type: in vivo, rat; conditions: 10, 25 or 50 mg/kg i.p., -1 h
Experimental: To evaluate if a coupound presents antiedematogenic activity, the model of carrageenan-induced edema in rats was used. In this model, before the administration of any drug, the right hindpaw volume is determined with a plethysmomether. After the division of the groups, carrageenan (1%, 50 μL) is injected into the plantar surface. At different times after the injection of carrageenan, the paw volume is determined again. This inflammatory stimulus induces a marked edema that is inhibited by different anti-inflammatory drugs (steroid and non-steroid), inhibitors of nitric oxide synthesis and antagonists of histamine, 5-hydroxytryptamine and bradykinin, inhibitors of nitric oxide syntheses, etc.
To evaluate if BS presents antiedematogenic activity, the model of carrageenan-induced edema in rats was used. In this model, before the administration of any drug, the right hindpaw volume is determined with a plethysmomether. After the division of the groups, carrageenan (1%, 50 μl) is injected into the plantar surface. At different times after the injection of carrageenan, the paw volume is determined again.

[6] = tested on: nociceptive response of mice on hot-plate (57° C.); assay: Hot-plate model; type: in vivo; conditions: 10, 25 or 50 mg/kg i.p., -1 h
Experimental: (§3) In the hot-plate model, the mice are placed over a hot-plate (57° C.). The latency to jump or lick the paws is determined. In this model, direct and immediate activation of peripheral afferent fibbers occurs. Thus, drugs that act mainly in the central nervous system inhibit the nociceptive response in this model.
as §3, with “fibers” for “fibbers”

[7] = tested on: angiogenesis induced by sponge implant in Swiss mice; assay: Angiogenesis induced by sponge implant, hemoglobin content (vascular index); type: in vivo; conditions: for reduction in the hemoglobin content of implants: vs vehicle-treated group
Experimental: The experiments were performed in male, Swiss mice (20-30 g; 12 weeks old) from the Animal House of the Institute of Biological Sciences, Federal University of Minas Gerais. Polyether-polyurethane sponge discs 5 mm thickness and 10 mm diameter with central cannula, used as a framework to induce fibrovascular tissue growth, were introduced through a skin incision in the back of mice anesthetized with 2,2,2-tribromoethanol ([…]) [Machado, R. D. P., Santos, R. A. S., Andrade, S. P., Life Sciences 66, 67, 2000]. The animals were housed individually and provided with normal food and water. Housing and anesthesia concurred with the guidelines established by our local Institutional Animal Welfare Committee.
Four more doses were given in the subsequent days. The animals were killed by cervical dislocation 9 days after implantation. The implants were removed and processed for hemoglobin determination (vascular index) using a modified Drabkin's method [Plunkett, M. L., Haley, J. A., Lab. Invest. […] One group of animals received injection of vehicle.

| Compound | animals with hindlimb extension blocked ([1]; 100 mg/Kg ip and vo, males) | animals in which active, 240 minutes after administration ([1]; 240 minutes after administration (vo)) | minimum dose necessary to produce anticonvulsant activity ([1]; ip) [mg/kg] | minimum dose necessary to produce anticonvulsant activity ([1]; vo) [mg/kg] | animals with tonic component of seizures blocked ([2]; 50 mg/Kg ip) [%] | animals with tonic component of seizures blocked ([2]; 75 mg/Kg ip) [%] | animals with tonic component of seizures blocked ([2]; 100 mg/Kg ip) [%] | minimum dose necessary to produce anticonvulsant activity ([2]; vo and ip) [mg/kg] | time spent in the rota-rod (motor activity of mice) | second phase of the nociceptive response (licking time 15-30 min) ([3]; all doses: 10, 25 and 50 mg/kg i.p., -1 h) | first phase of the nociceptive response (licking time 0-5 min) ([3]; highest dose, 50 mg/kg i.p.) | nociceptive response in thermal allodynia (paw withdrawal latency) [4] | carrageenan-induced edema (paw volume) [5] | anti-nociceptive effect (latency to jump or lick the paws) [6] | reduction in the hemoglobin content of implants ([7]; 0.05 mg/kg ip, 9 days after implantation) | reduction in the hemoglobin content of implants ([7]; the other doses (0.25, 0.5 and 2.5 mg/kg ip)) | increase in hemoglobin content of implants ([7]; 0.25 mg/kg, relative to the control group) | increase of hemoglobin content (vascular index), summary statement ([7]; dose not stated) |
| --- | --- | --- | --- | --- | --- | --- | --- | --- | --- | --- | --- | --- | --- | --- | --- | --- | --- | --- |
| NC(=O)NN=Cc1ccccc1 [BS, benzaldehyde semicarbazone] | about 90% | no activity | 100 | 100 | 33 | 50 | 83 | 100 | did not reduce the time spent in the rota-rod | markedly inhibited | inhibited | statistically inhibited | inhibited the carrageenan-induced edema | did not exhibit anti-nociceptive effect | unable to reduce the hemoglobin content | more than 50% |  |  |
| bromobenzaldehyde semicarbazone [BrBs] |  |  |  |  |  |  |  |  |  |  |  |  |  |  |  |  | about 30% | more than 30% |
